For one assay, the system named is HCV 1b genotype. The experiment in a line: HCV replicon assay (HCV-neo replicon cells, wild-type). To be noted: HCV 1b genotype replicon; class symbol; read-out: EC50 Range against HCV 1b. The assay is classed as cell-based, Hepatitis C virus. As for the experimental part: An HCV Replicon assay was utilized in the present disclosure, and was prepared, conducted and validated as described in commonly owned PCT/US2006/022197 and in O'Boyle et al., Antimicrob. Agents Chemother, 49(4):1346-1353 (April 2005). Assay methods incorporating luciferase reporters have also been used as described (Apath.com).
HCV-neo replicon cells and replicon cells containing resistance substitutions in the NS5A region were used to test the currently described family of compounds.
The compounds were determined to have differing degrees of reduced inhibitory activity on cells containing mutations vs. the corresponding inhibitory potency against wild-type cells. Thus, the compounds of the present disclosure can be effective in inhibiting the function of the HCV NS5A protein and are understood to be as effective in combinations as previously described in application PCT/US2006/022197 and commonly owned WO 04/014852. It should be understood that the compounds of the present disclosure can inhibit multiple genotypes of HCV. […] In one embodiment, compounds of the present disclosure are inhibitory versus 1a, 1b, 2a, 2b, 3a, 4a, and 5a genotypes.
Usually EC50 stands for the concentration needed to bring the measured effect to its halfway point. Turning to `CN(C)C(C(=O)N1CCC[C@H]1C(=O)Nc1ccc(-c2cnc(-c3ccc(NC(=O)[C@@H]4CCCN4C(=O)C(c4ccc(F)cc4F)N(C)C)cc3)o2)cc1)c1ccc(F)cc1F` (single isomer, unassigned) [Example D-6], the EC50 is under 4.57 nM.

Regarding `CN(C)C(C(=O)N1CCC[C@H]1C(=O)Nc1ccc(-c2cnc(-c3ccc(NC(=O)[C@@H]4CCCN4C(=O)C(c4ccc(F)cc4F)N(C)C)cc3)o2)cc1)c1ccc(F)cc1F` (single isomer, unassigned) [Example D-7], the EC50 was 4.57 to 99 nM.

Regarding `O=C(Nc1ccc(-c2cnc(-c3ccc(NC(=O)C4CC5CC5N4C(=O)C(O)c4ccccc4)cc3)o2)cc1)C1CC2CC2N1C(=O)C(O)c1ccccc1` [CB-5, (1S,3S,5S,1′S,3′S,5′S)-N,N′-(1,3-oxazole-2,5-diyldi-4,1-phenylene)bis(2-((2S)-2-hydroxy-2-phenylacetyl)-2-azabicyclo[3.1.0]hexane-3-carboxamide)], the EC50 lay in the range of 4.57 to 99 nM.

On to `O=C(Nc1ccc(-c2cnc(-c3ccc(NC(=O)[C@@H]4C[C@@H]5C[C@@H]5N4C(=O)[C@H](O)c4ccccc4)cc3)o2)cc1)[C@@H]1C[C@@H]2C[C@@H]2N1C(=O)[C@H](O)c1ccccc1` [CB-6, (1S,3S,5S,1′S,3′S,5′S)-N,N′-(1,3-oxazole-2,5-diyldi-4,1-phenylene)bis(2-((2R)-2-hydroxy-2-phenylacetyl)-2-azabicyclo[3.1.0]hexane-3-carboxamide)], for which the EC50 is under 4.57 nM.

Turning to `O=C(Nc1ccc(-c2cnc(-c3ccc(NC(=O)C4CC5CC5N4C(=O)C4CCCO4)cc3)o2)cc1)C1CC2CC2N1C(=O)C1CCCO1` [CB-7, (1S,3S,5S,1′S,3′S,5′S)-N,N′-(1,3-oxazole-2,5-diyldi-4,1-phenylene)bis(2-((2R)-tetrahydro-2-furanylcarbonyl)-2-azabicyclo[3.1.0]hexane-3-carboxamide)], the EC50 was in the range of 100 to 999 nM.

In the case of `CC(O)(C(=O)N1C(C(=O)Nc2ccc(-c3cnc(-c4ccc(NC(=O)C5CC6CC6N5C(=O)C(C)(O)c5ccccc5)cc4)o3)cc2)CC2CC21)c1ccccc1` [CB-8, (1S,3S,5S,1′S,3′S,5′S)-N,N′-(1,3-oxazole-2,5-diyldi-4,1-phenylene)bis(2-((2S)-2-hydroxy-2-phenylpropanoyl)-2-azabicyclo[3.1.0]hexane-3-carboxamide)], the EC50 is under 4.57 nM.

Take `CN(C)[C@@H](C(=O)N1[C@H](C(=O)Nc2ccc(-c3cnc(-c4ccc(NC(=O)[C@@H]5C[C@@H]6C[C@@H]6N5C(=O)[C@@H](c5ccccc5)N(C)C)cc4)o3)cc2)C[C@@H]2C[C@@H]21)c1ccccc1` [CB-9, (1S,3S,5S,1′S,3′S,5′S)-N,N′-(1,3-oxazole-2,5-diyldi-4,1-phenylene)bis(2-((2R)-2-(dimethylamino)-2-phenylacetyl)-2-azabicyclo[3.1.0]hexane-3-carboxamide)]: the EC50 is under 4.57 nM.

As to `CC(O)(C(=O)N1C(C(=O)Nc2ccc(-c3cnc(-c4ccc(NC(=O)C5CC6CC6N5C(=O)C(C)(O)c5ccccc5)cc4)o3)cc2)CC2CC21)c1ccccc1` [CB-10, (1S,3S,5S,1′S,3′S,5′S)-N,N′-(1,3-oxazole-2,5-diyldi-4,1-phenylene)bis(2-((2R)-2-hydroxy-2-phenylpropanoyl)-2-azabicyclo[3.1.0]hexane-3-carboxamide)], the EC50 was under 4.57 nM.

As for `CC(C)n1c(=O)n(CC(=O)N2CCC[C@H]2C(=O)Nc2ccc(-c3cnc(-c4ccc(NC(=O)[C@@H]5CCCN5C(=O)Cn5c(=O)n(C(C)C)c6cc(F)c(F)cc65)cc4)o3)cc2)c2cc(F)c(F)cc21` [Example D-9, (2S,2′S)-N,N′-(4,4′-(oxazole-2,5-diyl)bis(4,1-phenylene))bis(1-(2-(5,6-difluoro-3-isopropyl-2-oxo-2,3-dihydro-1H-benzo[d]imidazol-1-yl)acetyl)pyrrolidine-2-carboxamide)], the EC50 was in the range of 1000 to 10000 nM.

The assay is the same for the next values; noted with them: HCV 1b genotype replicon; read-out: EC50 1b.
Take `CC(O)(C(=O)N1C(C(=O)Nc2ccc(-c3cnc(-c4ccc(NC(=O)C5CC6CC6N5C(=O)C(C)(O)c5ccccc5)cc4)o3)cc2)CC2CC21)c1ccccc1` [CB-8, (1S,3S,5S,1′S,3′S,5′S)-N,N′-(1,3-oxazole-2,5-diyldi-4,1-phenylene)bis(2-((2S)-2-hydroxy-2-phenylpropanoyl)-2-azabicyclo[3.1.0]hexane-3-carboxamide)]: the EC50 is under 5 nM.

`CC(C)n1c(=O)n(CC(=O)N2CCC[C@H]2C(=O)Nc2ccc(-c3cnc(-c4ccc(NC(=O)[C@@H]5CCCN5C(=O)Cn5c(=O)n(C(C)C)c6cc(F)c(F)cc65)cc4)o3)cc2)c2cc(F)c(F)cc21` [Example D-9, (2S,2′S)-N,N′-(4,4′-(oxazole-2,5-diyl)bis(4,1-phenylene))bis(1-(2-(5,6-difluoro-3-isopropyl-2-oxo-2,3-dihydro-1H-benzo[d]imidazol-1-yl)acetyl)pyrrolidine-2-carboxamide)]: the EC50 was 3330 nM.

Staying with this assay, now noted: Hepatitis C virus, HCV 1b genotype replicon; class symbol; read-out: EC50 Range against HCV 1b.
For the compound `CC(=O)N[C@@H](C(=O)N1[C@H](C(=O)Nc2ccc(-c3cnc(-c4ccc(NC(=O)[C@@H]5C[C@@H]6C[C@@H]6N5C(=O)[C@H](NC(C)=O)c5ccccc5)cc4)o3)cc2)C[C@@H]2C[C@@H]21)c1ccccc1`, the EC50 was 4.57 to 99 nM.

For the compound `CC(=O)O[C@@H](C(=O)N1CCC[C@H]1C(=O)Nc1ccc(-c2ccc(-c3ccc(NC(=O)[C@@H]4CCCN4C(=O)[C@H](OC(C)=O)c4ccccc4)cc3)o2)cc1)c1ccccc1`, the EC50 is under 4.57 nM.

`CC(=O)O[C@H](C(=O)N1CCC[C@H]1C(=O)Nc1ccc(-c2ccc(-c3ccc(NC(=O)[C@@H]4CCCN4C(=O)[C@@H](OC(C)=O)c4ccccc4)cc3)o2)cc1)c1ccccc1`: the EC50 lay in the range of 100 to 999 nM.

For `O=C(Nc1ccc(-c2ncc(-c3ccc(NC(=O)[C@@H]4CCCN4C(=O)C4CC4)cc3)o2)cc1)C1CCCN1C(=O)C1CC1` (stereo in doubt) [JG-7, (2S,2′S)-N,N′-(1,3-oxazole-2,5-diyldi-4,1-phenylene)bis(1-(cyclopropylcarbonyl)-2-pyrrolidinecarboxamide)], the EC50 fell in the range of 100 to 999 nM.

Take `CC(NC(=O)[C@@H](O)c1ccccc1)C(=O)Nc1ccc(-c2cc(-c3ccc(NC(=O)[C@H](C)NC(=O)[C@@H](O)c4ccccc4)cc3)n[nH]2)cc1` (stereo in doubt) [OL-43, (S)-2-((S)-2-hydroxy-2-phenylacetamido)-N-(4-(5-(4-((R)-2-((S)-2-hydroxy-2-phenylacetamido)propanamido)phenyl)-1H-pyrazol-3-yl)phenyl)propanamide]: the EC50 is 4.57 to 99 nM.

Regarding `NC(=O)[C@@H]1C[C@@H]2C[C@@H]2N1C(=O)C1c2ccccc2C=CN1c1ccc(-c2ncc(-c3ccc(NC(=O)[C@@H]4C[C@@H]5C[C@@H]5N4C(=O)c4nccc5ccccc45)cc3)o2)cc1` (stereo partly drawn) [CB-2, (1S,3S,5S,1′S,3′S,5′S)-N,N′-(1,3-oxazole-2,5-diyldi-4,1-phenylene)bis(2-(1-isoquinolinylcarbonyl)-2-azabicyclo[3.1.0]hexane-3-carboxamide)], the EC50 was in the range of 100 to 999 nM.

In the case of `COc1cccc2c1C=C(Cl)N(c1ccc(-c3ncc(-c4ccc(NC(=O)[C@@H]5C[C@@H]6C[C@@H]6N5C(=O)c5nc(Cl)cc6c(OC)cccc56)cc4)o3)cc1)C2C(=O)N1[C@H](C(N)=O)C[C@@H]2C[C@@H]21` (stereo partly drawn) [CB-4, (1S,3S,5S,1′S,3′S,5′S)-N,N′-(1,3-oxazole-2,5-diyldi-4,1-phenylene)bis(2-((3-chloro-5-methoxy-1-isoquinolinyl)carbonyl)-2-azabicyclo[3.1.0]hexane-3-carboxamide)], the EC50 was 100 to 999 nM.

In the case of `CC(=O)N1CCC[C@H]1C(=O)Nc1ccc(-c2cnc(-c3ccc(NC(=O)[C@@H]4C=CCN4C(=O)Cc4cccs4)cc3)o2)cc1` [Example D-1, (2S)-N-[4-[5-[4-[[[(2S)-1-acetyl-2-pyrrolidinyl]carbonyl]amino]phenyl]-2-oxazolyl]phenyl]-2,5-dihydro-1-(2-thienylacetyl)-1H-pyrrole-2-carboxamide], the EC50 was in the range of 1000 to 10000 nM.

Consider `CCc1ccccc1C(=O)N1CC=C[C@H]1C(=O)Nc1ccc(-c2ncc(-c3ccc(NC(=O)[C@@H]4CCCN4C(C)=O)cc3)o2)cc1` [Example D-2, (2S)-N-[4-[5-[4-[[[(2S)-1-acetyl-2-pyrrolidinyl]carbonyl]amino]phenyl]-2-oxazolyl]phenyl]-1-(2-ethylbenzoyl)-2,5-dihydro-1H-pyrrole-2-carboxamide], for which the concentration giving a half-maximal response (EC50) lay within 100 to 999 nM.

For the compound `CC(=O)N1CCC[C@H]1C(=O)Nc1ccc(-c2cnc(-c3ccc(NC(=O)[C@@H]4C=CCN4C(=O)c4ccno4)cc3)o2)cc1` [Example D-3, (2S)-N-[4-[5-[4-[[[(2S)-1-acetyl-2-pyrrolidinyl]carbonyl]amino]phenyl]-2-oxazolyl]phenyl]-2,5-dihydro-1-(5-isoxazolylcarbonyl)-1H-pyrrole-2-carboxamide], the EC50 lay in the range of 1000 to 10000 nM.

`CN(C)C(C(=O)N1CCC[C@H]1C(=O)Nc1ccc(-c2cnc(-c3ccc(NC(=O)[C@@H]4CCCN4C(=O)C(c4ccccc4F)N(C)C)cc3)o2)cc1)c1ccccc1F` (stereo partly drawn) [Example D-4, (2S,2′S)-N,N′-(2,5-oxazolediyldi-4,1-phenylene)bis[1-[(dimethylamino)(2-fluorophenyl)acetyl]-2-pyrrolidinecarboxamide]]: the 50% effective concentration (EC50) is under 4.57 nM.

`CN(C)C(C(=O)N1CCC[C@H]1C(=O)Nc1ccc(-c2cnc(-c3ccc(NC(=O)[C@@H]4CCCN4C(=O)C(c4ccc(F)cc4F)N(C)C)cc3)o2)cc1)c1ccc(F)cc1F` (stereo partly drawn) [Example D-5, (2S,2′S)-N,N′-(2,5-oxazolediyldi-4,1-phenylene)bis[1-[(2,4-difluorophenyl)(dimethylamino)acetyl]-2-pyrrolidinecarboxamide]]: the EC50 is under 4.57 nM.

In the case of `CN1CCN(C(C(=O)N2CCC[C@H]2C(=O)Nc2ccc(-c3cnc(-c4ccc(NC(=O)[C@@H]5CCCN5C(=O)C(c5ccccc5)N5CCN(C)CC5)cc4)o3)cc2)c2ccccc2)CC1` (stereo partly drawn) [Example D-8, (2S,2′S)-N,N′-(1,3-oxazole-2,5-diyldi-4,1-phenylene)bis(1-((4-methyl-1-piperazinyl)(phenyl)acetyl)-2-pyrrolidinecarboxamide)], the EC50 was in the range of 4.57 to 99 nM.

Turning to `O=C(Nc1ccc(-c2cnc(-c3ccc(NC(=O)[C@@H]4CCCN4C(=O)C(O)c4nccs4)cc3)o2)cc1)[C@@H]1CCCN1C(=O)C(O)c1nccs1` (stereo partly drawn) [Example D-10, (2S,2′S)-N,N′-(1,3-oxazole-2,5-diyldi-4,1-phenylene)bis(1-(hydroxy(1,3-thiazol-2-yl)acetyl)-2-pyrrolidinecarboxamide)], the concentration giving a half-maximal response (EC50) is 100 to 999 nM.

The same assay, now with this note: Hepatitis C virus, HCV 1b genotype replicon; read-out: EC50 1b.
For the compound `CC(=O)N[C@@H](C(=O)N1[C@H](C(=O)Nc2ccc(-c3cnc(-c4ccc(NC(=O)[C@@H]5C[C@@H]6C[C@@H]6N5C(=O)[C@H](NC(C)=O)c5ccccc5)cc4)o3)cc2)C[C@@H]2C[C@@H]21)c1ccccc1`, the EC50 is under 5 nM.

The record behind these values is US8735398B2 (Bristol-Myers Squibb Company, priority 2009, dated 2014).
